In PMC9873809, “Identification of a human estrogen receptor α tetrapeptidic fragment with dual antiproliferative and anti-nociceptive action” (Scientific Reports, 2023):
Entries after “also recorded” stand apart in the source; their conditions may differ. Like-named read-outs stand apart in the source and are kept apart here. No end group written: not given here.

What was measured:
[1] = test system: tactile hypersensitivity in the murine CFA model; test: von Frey test in Complete Freund's Adjuvant (CFA) inflammatory pain model; assay type: in vivo, C57BL/6j mice; conditions: for 50% paw withdrawal threshold (PWT): seven days after CFA, mean ± SEM, n = 8 mice
Description: Experiments were performed according to ethical guidelines established by the International Association for the Study of Pain (IASP) and the relevant European legislation (Directive 2010/63/EU). They were also approved by the Auvergne Animal Experiment Ethics Committee, CE2A and the French Ministry of Higher Education and Innovation. Eight-week-old male C57BL/6j mice were purchased from Janvier Laboratories (Le Genest-Saint-Isle, France), housed under standard laboratory conditions (12 h light/dark cycle, temperature of 21 to 22 °C, 55% humidity under specific pathogen free conditions) and acclimatized for a week before testing. Food and water were available ad libitum.
Design, analysis and reporting were carried out in accordance with the ARRIVE guidelines[56]–[58]. To ensure the methodological quality of the study, Rice et al. recommendations were followed. Animals were randomly divided into eight mice per group. To assess different treatment effects over the same time interval and to avoid, thereby, unverifiable and time-variable environmental influence, treatments were administered following the method of equal blocks. All experiments were performed in a quiet room by the same blinded experimenter. ERα17p and PLMI peptides were dissolved in a saline solution prior to intraperitoneal administration (10 mL/kg).
A persistent inflammatory pain model was produced by injection under brief anesthesia (2.5% isoflurane inhalation) of Complete Freund's Adjuvant (CFA, 10 µL) on the left ankle joint of mice[60]. CFA consisted of Mycobacterium butyricum (Difco Laboratories, Detroit, USA) dissolved in paraffin oil and saline (0.9% NaCl). The solution was autoclaved 20 min at 120 °C. Behavior tests were performed before and seven days after CFA injection.
On behavior testing day, the mice were placed individually in Plexiglas compartments (8 cm (L) × 3.5 cm (W) × 8 cm (D)) and on an elevated wire mesh platform to allow access to the ventral surface of the hindpaws, and were allowed to acclimatize for one hour before testing. Von Frey filaments (0.02 to 1.4 g) were applied perpendicularly to the plantar surface of the paw. Paw withdrawal and licking were considered as positive responses. 50% paw withdrawal threshold (PWT) was determined using an adaptation of the Dixon up–down method, as described previously.
All data were analyzed using the Prism 8 software (GraphPad™ Software Inc., San Diego, CA). Data were tested for normality (Shapiro–Wilk test) and equal variance (Fisher test). For kinetic data, multiple measurements were compared with repeated measures (two-way ANOVA). Post hoc comparisons were performed by the Tukey’s test. […] AUC was expressed as mean ± SEM (g × min). […]

[2] = ThT fluorescence kinetics of fibril/aggregate formation; assay type: physicochemical; conditions: ThT 10 μM, mean of triplicate
Description: Fibrils were detected by measuring the fluorescence intensity of Thioflavin T (ThT)[53]. A plate reader (Fluostar Optima, BMG LabTech, Ortenberg, Germany) and standard 96-wells flat-bottom black microtiter plates (Costar 3792, Sigma Aldrich, Saint-Louis, USA) were used in combination with excitation and emission filters, at 440 and 485 nm, respectively (ThT concentration: 10 μM). Peptide concentrations varied from 10 to 100 μM, at pH 3.4 (0.2 M glycine HCl in water), pH 7.4 (0.2 M KH2PO4 in water, 0.2 M K2HPO4, in water) and pH 9.1 (0.2 M glycine NaOH in water). The microtiter plate was shaken prior to measurements. Fluorescence intensity (arbitrary units, u.a.) was recorded every 10 min, during 40 h. Resulting curves were analyzed by using GraphPad Prism. Data are the means of experiments performed in triplicate.

[3] = Transmission electron microscopy of aggregates; assay type: physicochemical
Description: Peptides were dissolved in appropriate buffer at pH 3.4, 7.4 and 9.1 to reach peptide stock solutions of 100 μM. Each peptide was incubated in an Eppendorf tube during 48 h. One drop (20 μL) of each peptide solution was adsorbed onto glow-discharged carbon coated 200 mesh copper grids. After 2 min, the grids were dried and negatively stained during 45 s with a 2.5% uranyl acetate solution. Grids were blotted, dried, and examined by using a Zeiss 912 Omega (Zeiss, Marly-le-Roi, France) […] or a JEOL 2100 HC (Croissy, France) […].

[4] = Circular dichroism of the soluble peptide pool over time; assay type: physicochemical; conditions: pH 9.1, peptide 100 μM, 25 °C, between 5 and 22 h
Description: CD spectra were recorded on a Jasco J-815 apparatus (Lisses, France) using quartz cells (0.1 cm path length, Hellma GmbH, Müllheim, Germany). Each peptide was dissolved (final concentration: 100 μM) in appropriate buffer solution, at pH 9.1. After an equilibration period of 5 min at 25 °C, CD spectra were recorded over the 190 to 260 nm wavelength range. Measurements were carried out at 1 nm intervals. Data points were acquired every 0.5 nm in continuous scanning mode (speed = 20 nm.min^−1, bandwidth = 1 nm). CD spectra were recorded after 0, 5, 22 and 28 h (unit: mean residue ellipticity [θ]MRE, in deg.cm^2.dmol^−1). Acquisitions were carried out using the software Spectra Manager. Recorded data (mean of five scans) were treated with GraphPad Prism. Buffer background was subtracted to avoid buffer and cell contributions.

[5] = Solubility as observed when preparing biological assays; conditions: culture media; reason for exclusion from biological assays
[6] = assay type: physicochemical; conditions: for change of intensity of aliphatic proton signals (1H-NMR): 298 K, 65 h, 500 MHz
Description: ERα17p fibrilization was followed at 298 K by using a NMR spectrometer (Bruker AVANCE III 500 MHz) equipped with a triple resonance (^1H, ^15 N, ^13C) cryoprobe. Each sample (100 μM) was prepared extemporaneously in appropriate buffer at pH 3.4, 7.4 and 9.1. A 10:90 D2O:H2O mixture was added to the buffer to reach a final D2O percentage of 7.5%. The final volume was of 520 μL in a 5 mm tube. 1D proton experiments (eight scans) were carried out over 65 h, with a total of 258 spectra (1 spectrum each 15 min, 8 scan/spectrum). Spectra analysis was carried out with the Bruker Topspin software by focusing between 0.80 and 3.60 ppm aliphatic side-chains region.

[7] = test system: GPER knockout (KO) MDA-MB-231 cells; test: Cell growth by automated cell counting; assay type: cell-based, human; conditions: GPER KO MDA-MB-231, 72 h, increasing concentrations, 2.5% charcoal-stripped FBS, three independent experiments in triplicate
Description: (§1) MCF-7 (ER + , PR + , […] , GPER +) and HS578T (ER-, PR-, Her2-, GPER +) cells were cultured in RPMI-1640 and DMEM medium (Life Technologies, Courtaboeuf, France), respectively, supplemented with 10% (v/v) fetal bovine serum (FBS), 100 U/mL penicillin and 100 µg/mL streptomycin. MDA-MB-231 triple negative breast cancer cells were obtained from the ATCC (Manassas, VA, USA). Cells were maintained in DMEM/F12 (Dulbecco’s modified Eagle’s medium) with phenol red, supplemented with 5% fetal bovine serum (FBS) and 1% penicillin/streptomycin (Thermo Fisher Scientific, Monza, Italy). Cells were grown in a 37 °C incubator with 5% CO2.
(§2) Short guide RNA (sgRNA) sequence targeting human GPER was designed using the E-CRISP sgRNA Designer (http://www.e-crisp.org/E-CRISP/) and was cloned into the pSpCas9 (BB)-2A-Puro (PX459) plasmid, as previously described. The GPER sgRNA sequence used to generate the GPER knockout is as followed: sgGPER: 5′-[…]-3′. Next, the vector with sgRNA was transiently transfected into MDA-MB-231 cells using Lipofectamine LTX (Life Technologies, Milan Italy). […]
(§3) MDA-MB-231 WT and GPER KO cells were seeded in 24-well plates in regular growth medium. […] Cells were counted on day 4 using an automated cell counter (Life Technologies, Milan, Italy), following the manufacturer’s recommendations.

[8] = test system: GPER (WT) MDA-MB-231 cells; test: Cell growth by automated cell counting; assay type: cell-based, human; conditions: WT MDA-MB-231, 72 h, increasing concentrations, 2.5% charcoal-stripped FBS, three independent experiments in triplicate
Description: as §1, §2, §3

[9] = cited from earlier work
Text: Then, we have explored the biological effects of the peptide 2, not only on cell survival (in vitro study) but also in pain (in vivo study). […] Our approach consisting in designing a minimalist active ERα17p-derived peptide, the pharmacologically inert KRSKK motif was excluded from our study. […] Regarding phenotypes, a GPER-dependent ...

[10] = test system: xenografted triple negative breast tumors; conditions: 1.5 mg/kg body weight, three times a week for four weeks, mice; cited from earlier work
inflammation and pain = conditions: cited from earlier work
GPER = conditions: binding within the ligand-binding site of GPER; cited from earlier work
Description: In physiological conditions (complete serum) and at the concentration of 10 μM, ERα17p triggers membrane-initiated pro-apoptotic events, in both ERα-positive and -negative breast cancer cell lines with, however, a preference for ERα-positive cancer cells. It decreases the ratio Bcl-xl/Bax, increases cleaved caspase-9 and induces a redistribution of actin through a mechanism requiring PI3K, ROCK and p38 MAPK, depending on cell line[21],[22]. Moreover, ERα17p induces a proteasome-dependent decrease of the levels of the G protein-coupled estrogen receptor (GPER), of activated EGFR and ERK1/2 ...

[11] = pH 9.1 (glycine NaOH 0.2 M in water), peptide 100 μM, 48 h incubation

CN1CC[C@]23c4c5ccc(O)c4O[C@H]2[C@@H](O)C=C[C@H]3[C@H]1C5 [morphine, reference compound]
50% paw withdrawal threshold (PWT) ([1]; 1 mg/kg, positive control, time not stated): 0.672 ± 0.041 g

NSLALSLT [peptide 1]
formation of aggregates (ThT fluorescence), fragments ([2]; pH 9.1 (glycine NaOH 0.2 M), peptide 100 μM, 40 h, ERα17p as reference): exponential increase of the fluorescence signal | length of stacked fibrils (TEM) [3, 11]: 1.5 μm | thickness of stacked fibrils (TEM) [3, 11]: 20 nm | decrease of the soluble pool (CD) [4]: 70% | solubility for biological assays [5]: insufficiently soluble; also recorded: poor solubility

PLMIKRSKKNSLALSLT [ERα17p]
50% paw withdrawal threshold (PWT) ([1]; 1.25 mg/kg i.p., 45 min): 0.141 ± 0.025 g | 50% paw withdrawal threshold (PWT) ([1]; 2.5 mg/kg i.p., 45 min): 0.293 ± 0.055 g | calculated EC50 of anti-hyperalgesic action ([1]; from AUC (0-180 min) of PWT variations, i.p., CFA model, von Frey test): 3.7 ± 1.9 mg/kg | formation of aggregates (ThT fluorescence) ([2]; pH 3.4 (0.2 M glycine HCl in water), peptide 10-100 μM, 40 h, ex 440/em 485 nm): No aggregation | formation of aggregates (ThT fluorescence) ([2]; pH 7.4 (0.2 M KH2PO4/0.2 M K2HPO4 in water), peptide 50 and 100 μM, 40 h): exponential time-dependent increase of the formation of aggregates | delay before formation of aggregates (ThT fluorescence) ([2]; pH 9.1 (0.2 M glycine NaOH in water), peptide 10 and 25 μM): 18 h | formation of aggregates (ThT fluorescence) ([2]; pH 9.1 (0.2 M glycine NaOH in water), peptide 50 and 100 μM, 40 h): exponential time-dependent increase of the formation of aggregates | change of intensity of aliphatic proton signals (1H-NMR) ([6]; pH 3.4, peptide 100 μM): No significant change | total amount of peptide remaining soluble (1H-NMR) ([6]; pH 7.4): about 40% | change of intensity of aliphatic proton signals (1H-NMR) ([6]; pH 9.1, peptide 100 μM): decay of the proton signals followed by a plateau | effect on cell viability [7]: inactive | effect on cell viability [8]: able to reduce the viability | cellular internalization [9]: poorly internalized | decrease of the size of xenografted triple negative breast tumors [10]: about 50% | dose from which anti-inflammatory and analgesic actions are supported (inflammation and pain): ≥ 2.5 mg/kg | Kd (GPER): micromolar range | aggregates seen by TEM ([3]; pH 3.4, peptide 100 μM, 48 h incubation): no aggregate was detected | morphology of aggregates by TEM ([3]; pH 7.4, peptide 100 μM, 48 h incubation): granulations resembling to a dense network of prefibrillar amyloid oligomers | morphology of aggregates by TEM ([3]; pH 9.1, peptide 100 μM): entanglement network of mature amyloid fibrils | length of amyloid fibrils (TEM) ([3]; pH 9.1, peptide 100 μM, 48 h incubation): > 1 μm
